Data reported in patent publication US12655150B2 (Cedilla Therapeutics, Inc., priority 2021, dated 2026).

The molecules below were run on NCI-H226 (assay: 72H TEAD Proliferation Assay (Cell Titer Glo 2.0)). Conditions: CTG 2.0, cell line not given (NCI-H226 responsive, NCI-H28 non-responsive).
Type: cell-based
Method in brief: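 Growth read-out is ATP luminescence (CellTiter-Glo 2.0) after 72 h compound exposure, corrected for no-CTG background and day-0 values, with GI50 from nonlinear regression. Sensitive line NCI-H226 (NF2-deficient); non-responsive NCI-H28 (NF2 wild type) distinguishes TEAD-driven from nonspecific growth inhibition.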

Row | Structure (SMILES) | GI50 [nM]
1 | COc1cc(-c2ccc(C(F)(F)F)cc2)nc2cc(C(=O)N3CCC3CO)ccc12 (single isomer, unassigned) [I-373, (2-(hydroxymethyl)azetidin-1-yl) (4-methoxy-2-(4-(trifluoromethyl)phenyl)quinolin-7-yl)methanone] | ≤ 1000

Same assay, conditions: Homo sapiens, NCI-H226, 72 h, CTG 2.0, cell line not given (NCI-H226 responsive, NCI-H28 non-responsive)

Row | Structure (SMILES) | GI50 [nM]
2 | CC1CCN(c2nc3cc(C(=O)O)ccc3n3cccc23)CC1 [I-16, 4-(4-Methylpiperidin-1-yl)pyrrolo[1,2-a]quinoxaline-7-carboxylic acid] | 1000 to 5000
3 | C=CC(=O)NCc1cn2ccnc2c(-c2ccc(F)cc2)n1 [I-110, N-((8-(4-fluorophenyl)imidazo[1,2-a]pyrazin-6-yl)methyl)acrylamide] | 1000 to 5000
4 | CC(C)(C)c1ccc(-c2nc3cc(C(=O)O)ccc3n3cc(OC(F)F)cc23)cc1 [I-274, 4-(4-(tert-butyl)phenyl)-2-(difluoromethoxy)pyrrolo[1,2-a]quinoxaline-7-carboxylic acid] | ≤ 1000
5 | C=CC(=O)NCc1cn2ccnc2c(Nc2cccc(C(F)(F)F)c2)n1 [I-169, N-((8-((3-(trifluoromethyl)phenyl)amino)imidazo[1,2-a]pyrazin-6-yl)methyl) acrylamide] | ≤ 1000
6 | C=CC(=O)Nc1ccc2c(C)cc(-c3ccc(C(C)(C)C)cc3)nc2c1 [I-86, N-(2-(4-(tert-Butyl)phenyl)-4-methylquinolin-7-yl)acrylamide] | ≤ 1000
7 | C=CC(=O)NCc1nc(-c2ccc(OC(F)(F)F)cc2)c2ccc(F)cc2n1 [I-447, N-((7-fluoro-4-(4-(trifluoromethoxy)phenyl)quinazolin-2-yl)methyl)acrylamide] | ≤ 1000
8 | COc1cc(-c2ccc(C(F)(F)F)cc2)nc2cc(C(=O)N[C@@H](CO)C(C)C)ccc12 [I-343, (R)—N-(1-hydroxy-3-methylbutan-2-yl)-4-methoxy-2-(4-(trifluoromethyl)phenyl)quinoline-7-carboxamide] | ≤ 1000
9 | CC(C)(C)c1ccc(-c2nc(C(=O)O)cn3cncc23)cc1 [I-94, 8-(4-(tert-Butyl)phenyl)imidazo[1,5-a]pyrazine-6-carboxylic acid] | > 10000
10 | Cc1cc(-c2ccc(C(F)(F)F)cc2)nc2cc(-c3nnn[nH]3)ccc12 [I-254, 4-Methyl-7-(1H-tetrazol-5-yl)-2-(4-(trifluoromethyl)phenyl)quinoline] | 5000 to 10000
11 | O=C(N[C@@H](CO)c1ccccc1)c1ccc2ccc(-c3ccc(C(F)(F)F)cc3)nc2c1 [I-428, (R)—N-(2-hydroxy-1-phenylethyl)-2-(4-(trifluoromethyl)phenyl)quinoline-7-carboxamide] | ≤ 1000
12 | CC(c1ccc(-c2nc3cc(C(=O)O)ccc3n3cccc23)cc1)C(F)(F)F (stereo not shown) [I-195, 4-(4-(1,1,1-trifluoropropan-2-yl)phenyl)pyrrolo[1,2-a]quinoxaline-7-carboxylic acid] | 1000 to 5000
13 | O=C(O)c1ccc2c(OC3CC3)cc(-c3ccc(C(F)(F)F)cc3)nc2c1 [I-395, 4-cyclopropoxy-2-(4-(trifluoromethyl)phenyl)quinoline-7-carboxylic acid] | ≤ 1000
14 | C=C(F)C(=O)NCc1cc2ccccc2c(-c2ccc(C(C)(C)C)cc2)n1 [I-215, N-((1-(4-(tert-butyl)phenyl)isoquinolin-3-yl)methyl)-2-fluoroacrylamide] | ≤ 1000
15 | C=CC(=O)NCc1cc2ccccc2c(-c2ccc(C(F)(F)F)nc2)n1 [I-302, N-((1-(6-(trifluoromethyl)pyridin-3-yl)isoquinolin-3-yl)methyl)acrylamide] | ≤ 1000
16 | C=CC(=O)NCc1cc2cccc(F)c2c(-c2ccc(C(F)(F)F)cc2)n1 [I-289, N-((8-fluoro-1-(4-(trifluoromethyl)phenyl)isoquinolin-3-yl)methyl)acrylamide] | ≤ 1000
17 | COc1cc(-c2ccc(C(F)(F)F)cc2)nc2cc(C(=O)N[C@H](C)CO)ccc12 [I-324, (R)—N-(1-hydroxypropan-2-yl)-4-methoxy-2-(4-(trifluoromethyl)phenyl)quinoline-7-carboxamide] | ≤ 1000
18 | CC(C)(C)c1ccc(-c2ncc3ccc(C(=O)O)cn23)cc1 [I-145, 3-(4-(tert-Butyl)phenyl)imidazo[1,5-a]pyridine-6-carboxylic acid] | > 10000
19 | O=C(O)c1ccc2c(c1)nc(N1CCc3ccccc3C1)c1cccn12 [I-21, 4-(3,4-Dihydroisoquinolin-2(1H)-yl)pyrrolo[1,2-a]quinoxaline-7-carboxylic acid] | > 10000
20 | O=C(O)c1ccc2c(c1)nc(N1CCC3(CC1)CC3)c1ccnn12 [I-277, 4-(6-azaspiro[2.5]octan-6-yl)pyrazolo[1,5-a]quinoxaline-7-carboxylic acid] | 1000 to 5000
21 | O=C(O)c1ccc2c(c1)nc(-c1ccc(C(F)(F)F)cc1)c1cccn12 [I-42, 4-(4-(Trifluoromethyl)phenyl)pyrrolo[1,2-a]quinoxaline-7-carboxylic acid] | ≤ 1000
22 | CC(C)(C)c1ccc(-c2cnc3ccc(C#N)cc3n2)cc1 [I-159, 3-(4-(tert-butyl)phenyl)quinoxaline-6-carbonitrile] | > 10000

Row | Structure (SMILES) | GI50 [nM]
23 | O=C(O)c1ccc2c(c1)nc(-c1ccc(C(F)(F)F)cc1F)c1cccn12 [I-50, 4-(2-fluoro-4-(trifluoromethyl)phenyl) pyrrolo[1,2-a] quinoxaline-7-carboxylic acid] | ≤ 1000
24 | FC(F)(F)c1ccc(-c2nc3cc(-c4nnn[nH]4)ccc3n3cccc23)cc1 [I-184, 7-(1H-tetrazol-5-yl)-4-(4-(trifluoromethyl)phenyl)pyrrolo[1,2-a]quinoxaline] | 5000 to 10000
25 | C=CC(=O)Nc1ccc2c(C)cc(-c3ccc(C(F)(F)F)cc3)nc2c1 [I-85, N-(4-Methyl-2-(4-(trifluoromethyl)phenyl)quinolin-7-yl)acrylamide] | ≤ 1000
26 | Cc1cc2c(-c3ccc(C(C)(C)C)cc3)nc3cc(C(=O)O)ccc3n2c1 [I-83, 4-(4-(tert-Butyl)phenyl)-2-methylpyrrolo[1,2-a]quinoxaline-7-carboxylic acid] | 1000 to 5000
27 | N#CNCc1cn2ccnc2c(-c2ccc(C(F)(F)F)cc2)n1 [I-238, N-((8-(4-(Trifluoromethyl)phenyl)imidazo[1,2-a]pyrazin-6-yl)methyl)cyanamide] | 1000 to 5000
28 | O=C(O)c1ccc2c(c1)nc(C13CC(C(F)(F)F)(C1)C3)c1cccn12 [I-272, 4-(3-(trifluoromethyl)bicyclo[1.1.1]pentan-1-yl)pyrrolo[1,2-a]quinoxaline-7-carboxylic acid] | 1000 to 5000
29 | O=C(O)c1ccc2c(c1)nc(N1CCC3(CC1)CC3)c1cccn12 [I-4, 4-(6-Azaspiro[2.5]octan-6-yl)pyrrolo[1,2-a]quinoxaline-7-carboxylic acid] | ≤ 1000
30 | CC[C@H](CO)NC(=O)c1ccc2c(C)cc(-c3ccc(C(F)(F)F)cc3)nc2c1 [I-265, (R)—N-(1-hydroxybutan-2-yl)-4-methyl-2-(4-(trifluoromethyl)phenyl)quinoline-7-carboxamide] | ≤ 1000
31 | COc1cnc(-c2ccc(C(C)(C)C)cc2)c2nccn12 [I-150, 8-(4-(tert-Butyl)phenyl)-5-methoxyimidazo[1,2-a]pyrazine] | > 10000
32 | O=C(O)c1ccc2c(c1)nc(N1CCCCC1)c1cccn12 [I-2, 4-(Piperidin-1-yl)pyrrolo[1,2-a]quinoxaline-7-carboxylic acid] | > 10000
33 | Cc1cc(-c2ccc(C(C)(C)C)cc2)nc2cc(C(=O)O)ccc12 [I-88, 2-(4-(tert-Butyl)phenyl)-4-methylquinoline-7-carboxylic acid] | 1000 to 5000
34 | Cc1cc(C(F)(F)F)ccc1-c1nc2cc(C(=O)O)ccc2n2cccc12 [I-52, 4-(2-Methyl-4-(trifluoromethyl)phenyl)pyrrolo[1,2-a]quinoxaline-7-carboxylic acid] | 1000 to 5000
35 | C=CC(=O)NCc1cc2cc(F)ccc2c(-c2ccc(C(F)(F)F)cc2)n1 [I-299, N-((6-fluoro-1-(4-(trifluoromethyl)phenyl)isoquinolin-3-yl)methyl)acrylamide] | ≤ 1000
36 | CC(C)(C)C1CCN(c2nc3cc(C(=O)O)ccc3n3cccc23)CC1 [I-37, 4-(4-(tert-Butyl)piperidin-1-yl)pyrrolo[1,2-a]quinoxaline-7-carboxylic acid] | > 10000
37 | C=CC(=O)NCc1cn2ccnc2c(Oc2cccc(C(F)(F)F)c2)n1 [I-171, N-((8-(3-(trifluoromethyl)phenoxy)imidazo[1,2-a]pyrazin-6-yl)methyl)acrylamide] | ≤ 1000
38 | CC(C)(C)c1ccc(-c2nc3cc(C(=O)NS(C)(=O)=O)ccc3n3cccc23)cc1 [I-123, 4-(4-(tert-Butyl)phenyl)-N-(methylsulfonyl)pyrrolo[1,2-a]quinoxaline-7-carboxamide] | > 10000
39 | C=CC(=O)NCc1cn2ccnc2c(-c2ccc(C(F)(F)F)cn2)n1 [I-313, N-((8-(5-(trifluoromethyl)pyridin-2-yl)imidazo[1,2-a]pyrazin-6-yl)methyl)acrylamide] | 1000 to 5000
40 | C=CC(=O)Nc1cn2cccc2c(-c2ccc(C3(C(F)(F)F)CC3)cc2)n1 [I-102, N-(1-(4-(1-(trifluoromethyl)cyclopropyl)phenyl)pyrrolo[1,2-a]pyrazin-3-yl)acrylamide] | ≤ 1000
41 | C=CC(=O)N(C)Cc1cn2ccnc2c(-c2ccc(C(F)(F)F)cc2)n1 [I-177, N-Methyl-N-((8-(4-(trifluoromethyl)phenyl)imidazo[1,2-a]pyrazin-6-yl)methyl)acrylamide] | ≤ 1000
42 | COc1cc(-c2ccc(C(F)(F)F)cc2)nc2cc(C(=O)NC(CO)C3CCOCC3)ccc12 (single isomer, unassigned) [I-368, N-(2-hydroxy-1-(tetrahydro-2H-pyran-4-yl)ethyl)-4-methoxy-2-(4-(trifluoromethyl)phenyl)quinoline-7-carboxamide] | 1000 to 5000
43 | O=C(O)c1ccc2c(c1)nc(NCCC(F)(F)F)c1cccn12 [I-107, 4-((3,3,3-Trifluoropropyl)amino)pyrrolo[1,2-a]quinoxaline-7-carboxylic acid] | > 10000
